The target of assay [1] is PI3K δ (Homo sapiens (Human), UniProt O00329). As to the kind of experiment: PI3-Kinase Promega ADP-Glo Max assay. The format is biochemical. In general terms: In ADP-Glo the light output rises with the ADP produced.
Method: (§1) Promega ADP-Glo Max assay kit (Cat. No. V7002) was utilized to determine IC50 values for α, β, δ and γ isoforms of human Class I PI3 kinases (Millipore). […] Reactions were incubated at room temperature for 2 hours followed by addition of 25 uL of stop solution. After a 40-minute incubation at room temperature, 50 uL of Promega detection mix was added followed by incubation for 1 hour at room temperature. Plates were then read on Envision plate reader in lunimescence mode. Data was converted to % inhibition using the following equation below:
(§2) [formula] where S is the sample luminescence, Pos is a positive control without added PI3K, Neg is the negative control without added compound. Data was then plotted as % inhibition vs compound concentration.
The target in assay [2] is PI3K-γ in RAW264.7 macrophages (Mus musculus (Mouse), UniProt Q9JHG7). As to the kind of experiment: Raw264.7 p110 γ assay (PI3K-γ selective cellular assay, C5a-stimulated phospho-AKT). The format is cell-based. Conditions: for IC50: phospho-AKT, read-out: Raw264.7 p110 γ assay IC50.
From the text: Briefly, serum-starved RAW264.7 cells are stimulated with a known GPCR agonist C5a. […] Cells can be treated with test compounds prior to, simultaneously with, or subsequent to the stimulation by C5a. RAW 264.7 cells respond to the complement component fragment C5a through activation of the C5a receptor, and the C5a receptor activates macrophages and induces cell migration.
The target in assay [3] is PI3K γ (Homo sapiens (Human), UniProt P48736). As to the kind of experiment: PI3-Kinase Promega ADP-Glo Max assay. The format is biochemical.
Method: as §1, §2
Assay [4] deals with PI3K-δ in RAJI cells (Homo sapiens (Human), UniProt O00329). The assay is described as follows: RAJI p110 δ assay (PI3K-δ selective cellular assay, phospho-AKT). The format is cell-based. Conditions: phospho-AKT; read-out: RAJI p110 δ assay IC50.
Assay [5] addresses PI3K β (Homo sapiens (Human), UniProt P42338). The assay is described as follows: PI3-Kinase Promega ADP-Glo Max assay. Type of assay: biochemical.
Assay [6] addresses PI3K α (Homo sapiens (Human), UniProt P42336). As to the kind of experiment: PI3-Kinase Promega ADP-Glo Max assay. The format is biochemical.
Method: as §1, §2

PI3K β, sequence (P42338 whole entry): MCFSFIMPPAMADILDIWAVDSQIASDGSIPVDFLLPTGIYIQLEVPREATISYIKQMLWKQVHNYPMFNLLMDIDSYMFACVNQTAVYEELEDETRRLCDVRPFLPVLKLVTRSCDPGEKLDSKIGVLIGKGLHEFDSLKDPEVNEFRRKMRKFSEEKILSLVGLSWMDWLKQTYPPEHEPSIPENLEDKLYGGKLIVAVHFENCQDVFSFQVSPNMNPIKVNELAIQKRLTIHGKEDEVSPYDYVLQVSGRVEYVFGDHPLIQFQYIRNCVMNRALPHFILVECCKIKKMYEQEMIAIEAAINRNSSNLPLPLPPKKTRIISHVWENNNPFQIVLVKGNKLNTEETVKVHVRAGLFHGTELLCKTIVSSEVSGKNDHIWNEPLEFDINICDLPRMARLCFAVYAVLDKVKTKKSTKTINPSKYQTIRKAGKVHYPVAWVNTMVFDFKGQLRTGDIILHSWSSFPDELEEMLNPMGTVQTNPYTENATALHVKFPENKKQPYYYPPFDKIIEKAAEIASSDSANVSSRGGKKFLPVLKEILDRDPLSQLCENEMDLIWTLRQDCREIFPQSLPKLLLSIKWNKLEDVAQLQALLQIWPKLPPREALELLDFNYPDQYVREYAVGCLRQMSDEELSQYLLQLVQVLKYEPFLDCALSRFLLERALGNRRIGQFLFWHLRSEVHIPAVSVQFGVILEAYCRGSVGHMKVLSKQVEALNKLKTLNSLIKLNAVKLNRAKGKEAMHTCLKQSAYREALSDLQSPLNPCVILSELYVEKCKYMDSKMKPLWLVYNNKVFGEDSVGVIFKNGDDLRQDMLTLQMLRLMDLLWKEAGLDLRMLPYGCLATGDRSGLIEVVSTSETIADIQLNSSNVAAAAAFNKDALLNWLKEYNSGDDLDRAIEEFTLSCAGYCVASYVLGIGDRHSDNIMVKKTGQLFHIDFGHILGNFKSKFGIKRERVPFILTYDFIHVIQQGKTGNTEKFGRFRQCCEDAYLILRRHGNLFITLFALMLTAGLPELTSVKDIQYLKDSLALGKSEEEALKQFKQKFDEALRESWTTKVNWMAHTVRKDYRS
PI3K β, sequence (P27986 whole entry partner): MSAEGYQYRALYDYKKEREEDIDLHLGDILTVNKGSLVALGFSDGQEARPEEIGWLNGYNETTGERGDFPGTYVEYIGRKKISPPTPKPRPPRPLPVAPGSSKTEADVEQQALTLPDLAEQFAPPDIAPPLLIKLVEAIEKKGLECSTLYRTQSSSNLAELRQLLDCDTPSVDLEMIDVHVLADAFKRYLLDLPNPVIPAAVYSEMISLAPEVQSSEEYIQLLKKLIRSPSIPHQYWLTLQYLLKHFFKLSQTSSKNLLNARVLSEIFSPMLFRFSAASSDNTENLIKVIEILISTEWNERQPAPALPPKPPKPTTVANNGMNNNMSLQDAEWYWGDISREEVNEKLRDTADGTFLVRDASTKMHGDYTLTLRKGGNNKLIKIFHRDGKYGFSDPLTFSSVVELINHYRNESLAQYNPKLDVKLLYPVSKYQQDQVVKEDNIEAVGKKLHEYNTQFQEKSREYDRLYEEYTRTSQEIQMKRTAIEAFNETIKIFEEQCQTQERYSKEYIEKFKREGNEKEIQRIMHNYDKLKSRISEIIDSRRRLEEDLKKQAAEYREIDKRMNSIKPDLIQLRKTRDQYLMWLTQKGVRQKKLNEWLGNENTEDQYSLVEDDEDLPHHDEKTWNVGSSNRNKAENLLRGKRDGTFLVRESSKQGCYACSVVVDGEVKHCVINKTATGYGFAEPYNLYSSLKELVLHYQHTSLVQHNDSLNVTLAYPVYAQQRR
PI3K α, sequence (P42336 whole entry): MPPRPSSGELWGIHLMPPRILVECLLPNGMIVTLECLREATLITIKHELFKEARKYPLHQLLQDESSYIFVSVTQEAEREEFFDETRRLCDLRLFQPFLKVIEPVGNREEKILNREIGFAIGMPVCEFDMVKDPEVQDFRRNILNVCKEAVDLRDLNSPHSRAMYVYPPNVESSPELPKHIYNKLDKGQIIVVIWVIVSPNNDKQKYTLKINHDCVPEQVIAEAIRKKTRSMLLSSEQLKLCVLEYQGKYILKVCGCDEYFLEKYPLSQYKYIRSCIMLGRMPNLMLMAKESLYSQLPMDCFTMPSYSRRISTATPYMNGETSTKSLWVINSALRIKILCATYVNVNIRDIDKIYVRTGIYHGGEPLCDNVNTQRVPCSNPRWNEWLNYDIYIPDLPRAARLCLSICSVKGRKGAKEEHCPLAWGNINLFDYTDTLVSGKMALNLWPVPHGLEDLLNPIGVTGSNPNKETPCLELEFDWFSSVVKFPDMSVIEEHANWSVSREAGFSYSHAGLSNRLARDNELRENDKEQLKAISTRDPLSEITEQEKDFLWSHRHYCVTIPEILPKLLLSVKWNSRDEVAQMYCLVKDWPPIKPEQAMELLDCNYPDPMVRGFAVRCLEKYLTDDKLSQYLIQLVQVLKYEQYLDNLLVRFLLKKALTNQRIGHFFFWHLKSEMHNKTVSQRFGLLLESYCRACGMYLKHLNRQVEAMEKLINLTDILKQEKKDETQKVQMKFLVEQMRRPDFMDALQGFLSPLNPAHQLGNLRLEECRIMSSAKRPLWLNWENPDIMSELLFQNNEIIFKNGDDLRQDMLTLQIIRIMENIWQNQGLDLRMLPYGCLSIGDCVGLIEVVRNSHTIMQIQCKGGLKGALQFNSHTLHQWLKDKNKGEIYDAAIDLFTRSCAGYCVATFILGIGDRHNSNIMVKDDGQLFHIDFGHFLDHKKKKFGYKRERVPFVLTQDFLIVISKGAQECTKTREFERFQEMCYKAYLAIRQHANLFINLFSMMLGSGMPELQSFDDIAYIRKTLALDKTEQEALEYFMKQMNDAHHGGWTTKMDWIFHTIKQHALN
PI3K α, sequence (P27986 whole entry partner): as the sequence (P27986 whole entry partner) above
PI3K-γ in RAW264.7 macrophages, sequence (Q9JHG7 whole entry): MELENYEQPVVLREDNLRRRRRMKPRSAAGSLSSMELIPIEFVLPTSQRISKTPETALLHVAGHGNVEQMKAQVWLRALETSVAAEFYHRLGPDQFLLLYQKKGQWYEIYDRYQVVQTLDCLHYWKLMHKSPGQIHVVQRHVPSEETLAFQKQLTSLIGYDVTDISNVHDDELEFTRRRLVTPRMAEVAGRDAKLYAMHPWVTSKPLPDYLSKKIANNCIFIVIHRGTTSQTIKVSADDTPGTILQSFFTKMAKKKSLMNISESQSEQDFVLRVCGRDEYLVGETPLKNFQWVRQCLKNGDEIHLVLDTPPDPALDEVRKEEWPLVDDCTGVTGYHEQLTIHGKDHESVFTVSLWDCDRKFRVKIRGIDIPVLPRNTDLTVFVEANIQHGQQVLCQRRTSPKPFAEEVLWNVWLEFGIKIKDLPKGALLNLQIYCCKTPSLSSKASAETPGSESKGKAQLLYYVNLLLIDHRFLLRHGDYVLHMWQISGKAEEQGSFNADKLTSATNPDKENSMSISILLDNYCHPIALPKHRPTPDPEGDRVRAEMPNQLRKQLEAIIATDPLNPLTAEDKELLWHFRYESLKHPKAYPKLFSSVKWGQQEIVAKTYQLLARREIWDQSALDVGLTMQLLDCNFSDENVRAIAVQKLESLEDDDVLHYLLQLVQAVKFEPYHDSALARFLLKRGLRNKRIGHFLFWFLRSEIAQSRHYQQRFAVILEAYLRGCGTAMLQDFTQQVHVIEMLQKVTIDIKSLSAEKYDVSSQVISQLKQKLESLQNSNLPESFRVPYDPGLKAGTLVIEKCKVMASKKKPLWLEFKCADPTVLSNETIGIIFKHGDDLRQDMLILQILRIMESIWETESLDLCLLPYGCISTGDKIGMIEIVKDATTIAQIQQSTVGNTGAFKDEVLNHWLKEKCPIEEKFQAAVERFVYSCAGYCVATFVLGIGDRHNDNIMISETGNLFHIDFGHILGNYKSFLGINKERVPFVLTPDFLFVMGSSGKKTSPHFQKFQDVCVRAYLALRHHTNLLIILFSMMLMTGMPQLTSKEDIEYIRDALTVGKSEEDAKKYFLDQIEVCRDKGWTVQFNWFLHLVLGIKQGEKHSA
PI3K γ, sequence (P48736 whole entry): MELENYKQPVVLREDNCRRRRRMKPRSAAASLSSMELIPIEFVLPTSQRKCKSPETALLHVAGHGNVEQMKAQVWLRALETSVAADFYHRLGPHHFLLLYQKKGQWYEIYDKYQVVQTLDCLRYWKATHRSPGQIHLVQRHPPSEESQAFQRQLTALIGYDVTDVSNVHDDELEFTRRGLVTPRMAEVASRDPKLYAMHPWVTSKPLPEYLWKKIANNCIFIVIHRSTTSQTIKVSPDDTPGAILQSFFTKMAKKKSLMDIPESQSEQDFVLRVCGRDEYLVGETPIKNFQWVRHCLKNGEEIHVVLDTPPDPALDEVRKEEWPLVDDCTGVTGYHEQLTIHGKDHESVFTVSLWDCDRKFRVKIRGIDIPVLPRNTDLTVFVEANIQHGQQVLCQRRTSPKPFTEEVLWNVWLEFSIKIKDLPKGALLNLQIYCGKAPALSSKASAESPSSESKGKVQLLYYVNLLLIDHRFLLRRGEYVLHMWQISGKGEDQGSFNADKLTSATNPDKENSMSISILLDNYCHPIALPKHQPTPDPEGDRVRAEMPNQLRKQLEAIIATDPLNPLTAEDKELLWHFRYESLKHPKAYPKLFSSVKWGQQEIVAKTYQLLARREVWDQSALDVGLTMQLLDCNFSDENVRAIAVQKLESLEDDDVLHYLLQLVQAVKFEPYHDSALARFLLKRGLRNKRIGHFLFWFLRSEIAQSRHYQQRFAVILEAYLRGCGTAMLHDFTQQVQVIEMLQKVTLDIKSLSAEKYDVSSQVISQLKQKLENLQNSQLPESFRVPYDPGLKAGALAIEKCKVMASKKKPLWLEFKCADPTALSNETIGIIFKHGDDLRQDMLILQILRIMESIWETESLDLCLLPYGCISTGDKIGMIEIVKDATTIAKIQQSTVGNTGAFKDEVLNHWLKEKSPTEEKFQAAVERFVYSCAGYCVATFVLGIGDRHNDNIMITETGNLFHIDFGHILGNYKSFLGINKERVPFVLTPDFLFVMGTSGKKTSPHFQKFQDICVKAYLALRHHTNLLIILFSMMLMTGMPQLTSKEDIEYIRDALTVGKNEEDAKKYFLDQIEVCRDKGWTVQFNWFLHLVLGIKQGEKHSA

By IC50 is commonly meant the concentration that gives 50% inhibition. Consider `CC#Cc1cccc2nc([C@H](C)NC(=O)c3c(N)nn4cccnc34)n(-c3ccccc3)c(=O)c12` [Compound 1], for which the IC50 in assay [1] lay within 0.5 to 1 µM; in assay [2], 0.001 to 0.05 µM; in assay [3], 0.001 to 0.1 µM; in assay [4], 0.001 to 0.1 µM; in assay [5], 1 to 5 µM; in assay [6], 5 to 10 µM. Further, in assay [2], the “RAJIδ/Raw264.7 γ IC50 (selectivity)” value is “X (X = 10 to <50)”. For the same compound, the “PI3K δ/PI3K γ IC50 (selectivity)” value in assay [3] is recorded as “X (X = 10 to <50)”.
Take `C[C@H](NC(=O)c1c(N)nn2cccnc12)c1nc2cccc(C#Cc3cnn(C)c3)c2c(=O)n1-c1ccccc1` [Compound 21]: the IC50 in assay [1] was in the range of 5 to 10 µM; in assay [4], 0.1 to 0.5 µM; in assay [5] it was 5 to 10 µM; in assay [6] it was 5 to 10 µM.
In the case of `C[C@H](NC(=O)c1c(N)nn2cccnc12)c1cc2cccc(C#Cc3cnn(C)c3)c2c(=O)n1C1CC1` [Compound 25], the IC50 is 5 to 10 µM in assay [1]; 0.001 to 0.05 µM in assay [2]; 0.1 to 0.5 µM in assay [4]; 1 to 5 µM in assay [5]; 1 to 5 µM in assay [6].
Consider `C[C@H](NC(=O)c1c(N)nn2cccnc12)c1cc2cccc(C#Cc3ccc(=O)[nH]c3)c2c(=O)n1-c1ccccc1` [Compound 33], for which the IC50 in assay [2] is 0.001 to 0.05 µM.
Take `C[C@H](NC(=O)c1cncc2cccnc12)c1cc2cccc(C#Cc3cnn(C)c3)c2c(=O)n1-c1ccccc1` [Compound 42]: the IC50 in assay [2] was in the range of 0.001 to 0.05 µM.
On to `C[C@H](NC(=O)c1c(N)nn2cccnc12)c1cc2cccc(C#Cc3cnn(C)c3)c2c(=O)[nH]1` [Compound 44], for which, in assay [2], the IC50 lay within 0.05 to 0.1 µM.
Regarding `C#Cc1cccc2nc([C@H](C)NC(=O)c3nccnc3N)n(-c3ccccc3)c(=O)c12` [Compound 47], the IC50 in assay [1] is 0.001 to 0.5 µM; in assay [3] it was 0.001 to 0.1 µM; in assay [5] it was 0.001 to 0.5 µM; in assay [6] it was 1 to 5 µM. The “PI3K δ/PI3K γ IC50 (selectivity)” value in assay [3] is reported as “V (V = 0.1 to 1)”.
Consider `COc1cnc(C(=O)N[C@@H](C)c2cc3cccc(C#Cc4cnn(C)c4)c3c(=O)n2-c2ccccc2)c(N)n1` [Compound 71], for which the IC50 in assay [1] was 5 to 10 µM; in assay [3], above 5 µM; in assay [4] it was 1 to 10 µM; in assay [5], 5 to 10 µM; in assay [6], 5 to 10 µM. For the same compound, the “PI3K δ/PI3K γ IC50 (selectivity)” value in assay [3] is given as “V (V = 0.1 to 1)”.
Regarding `C[C@H](NC(=O)c1c(N)nn2cccnc12)c1cc2cccc(C#CC3CCN(C)CC3)c2c(=O)n1-c1ccccc1` [Compound 85], the IC50 was in the range of 5 to 10 µM in assay [1], 0.5 to 1 µM in assay [3], 5 to 10 µM in assay [5] and 5 to 10 µM in assay [6]. The “PI3K δ/PI3K γ IC50 (selectivity)” value in assay [3] is listed as “X (X = 10 to <50)”.
Take `Cc1nnc(C#Cc2cccc3cc([C@H](C)NC(=O)c4c(N)nn5cccnc45)n(-c4ccccc4)c(=O)c23)s1` [Compound 86]: the IC50 in assay [1] lay within 1 to 5 µM; in assay [3], 0.1 to 0.5 µM; in assay [5], 1 to 5 µM; in assay [6] it was 5 to 10 µM. In assay [3], the “PI3K δ/PI3K γ IC50 (selectivity)” value was “X (X = 10 to <50)”.
With `C[C@H](NC(=O)c1c(N)nn2cccnc12)c1cc2cccc(/C=C/c3ccccc3)c2c(=O)n1-c1ccccc1` [Compound 87], the IC50 in assay [1] is 5 to 10 µM; in assay [3], above 5 µM; in assay [5], 5 to 10 µM; in assay [6], 5 to 10 µM. Further, in assay [3], the “PI3K δ/PI3K γ IC50 (selectivity)” value is “V (V = 0.1 to 1)”.
As for `C[C@H](NC(=O)c1c(N)nn2cccnc12)c1cc2cccc(C#Cc3cnn(C)c3)c2c(=O)n1-c1cccc(F)c1` [Compound 93], the IC50 was 5 to 10 µM in assay [1], 0.001 to 0.1 µM in assay [3], 5 to 10 µM in assay [5] and 5 to 10 µM in assay [6]. Further, the “PI3K δ/PI3K γ IC50 (selectivity)” value in assay [3] was “Y (Y = 50 to <850)”.
In the case of `C[C@H](NC(=O)c1c(N)nn2cccnc12)c1cc2cccc(C#Cc3cnn(C)c3)c2c(=O)n1C` [Compound 94], the IC50 in assay [1] lay within 5 to 10 µM; in assay [3], 0.1 to 0.5 µM; in assay [5] it was 0.5 to 1 µM; in assay [6], 1 to 5 µM. The “PI3K δ/PI3K γ IC50 (selectivity)” value in assay [3] is listed as “X (X = 10 to <50)”.
The corresponding values for `Cc1cccc(-n2c([C@H](C)NC(=O)c3c(N)nn4cccnc34)cc3cccc(C#Cc4cnn(C)c4)c3c2=O)c1` [Compound 95] are 5 to 10 µM, 0.1 to 0.5 µM, 5 to 10 µM, 5 to 10 µM and “X (X = 10 to <50)”.
`C[C@H](NC(=O)c1c(N)nn2cccnc12)c1cc2cccc(C#Cc3cnn(C)c3)c2c(=O)n1-c1ccc(F)cc1` [Compound 96]: the IC50 in assay [1] fell in the range of 5 to 10 µM; in assay [3], 0.001 to 0.1 µM; in assay [5], 5 to 10 µM; in assay [6], 1 to 5 µM. Further, the “PI3K δ/PI3K γ IC50 (selectivity)” value in assay [3] is “Y (Y = 50 to <850)”.
`C[C@H](NC(=O)c1c(N)nn2cccnc12)c1cc2cccc(C#Cc3cnn(C)c3)c2c(=O)n1-c1ccc(F)c(F)c1` [Compound 97]: the IC50 lay in the range of 5 to 10 µM in assay [1], 0.1 to 0.5 µM in assay [3], 5 to 10 µM in assay [5] and 5 to 10 µM in assay [6]. Moreover, the “PI3K δ/PI3K γ IC50 (selectivity)” value in assay [3] is “X (X = 10 to <50)”.
Take `Cc1ccc(-n2c([C@H](C)NC(=O)c3c(N)nn4cccnc34)cc3cccc(C#Cc4cnn(C)c4)c3c2=O)cc1` [Compound 98]: the IC50 in assay [1] lay within 5 to 10 µM; in assay [3], 0.1 to 0.5 µM; in assay [5], 5 to 10 µM; in assay [6] it was 5 to 10 µM. The “PI3K δ/PI3K γ IC50 (selectivity)” value in assay [3] was “X (X = 10 to <50)”.
Turning to `C[C@H](NC(=O)c1c(N)nn2cccnc12)c1cc2cccc(C#Cc3cnn(C)c3)c2c(=O)n1C1CCCCC1` [Compound 99], the IC50 lay in the range of 5 to 10 µM in assay [1], 1 to 5 µM in assay [3], 5 to 10 µM in assay [5] and 5 to 10 µM in assay [6]. Further, the “PI3K δ/PI3K γ IC50 (selectivity)” value in assay [3] is “X (X = 10 to <50)”.
As for `CNS(=O)(=O)CCn1c([C@H](C)NC(=O)c2c(N)nn3cccnc23)cc2cccc(C#Cc3cnn(C)c3)c2c1=O` [Compound 100], the IC50 in assay [1] fell in the range of 5 to 10 µM; in assay [3], 0.001 to 0.1 µM; in assay [5], 1 to 5 µM; in assay [6], 1 to 5 µM. The “PI3K δ/PI3K γ IC50 (selectivity)” value in assay [3] is “Y (Y = 50 to <850)”.
Regarding `Cc1ccccc1-n1c([C@H](C)NC(=O)c2c(N)nn3cccnc23)cc2cccc(C#Cc3cnn(C)c3)c2c1=O` [Compound 101], the IC50 in assay [1] lay within 5 to 10 µM; in assay [3], 0.001 to 0.1 µM; in assay [5], 5 to 10 µM; in assay [6] it was 5 to 10 µM. Besides, the “PI3K δ/PI3K γ IC50 (selectivity)” value in assay [3] was “Y (Y = 50 to <850)”.
For `Cc1ccnc2c(C(=O)N[C@@H](C)c3cc4cccc(C#Cc5cnn(C)c5)c4c(=O)n3-c3ccccc3)c(N)nn12` [Compound 102], the IC50 in assay [1] was 5 to 10 µM; in assay [3] it was 0.1 to 0.5 µM; in assay [5], 5 to 10 µM; in assay [6], 5 to 10 µM. Besides, the “PI3K δ/PI3K γ IC50 (selectivity)” value in assay [3] was “X (X = 10 to <50)”.
Turning to `CC(C)n1c([C@H](C)NC(=O)c2c(N)nn3cccnc23)cc2cccc(C#Cc3cnn(C)c3)c2c1=O` [Compound 103], the IC50 in assay [1] is 5 to 10 µM; in assay [3], 0.5 to 1 µM; in assay [5] it was 5 to 10 µM; in assay [6] it was 5 to 10 µM. Besides, the “PI3K δ/PI3K γ IC50 (selectivity)” value in assay [3] is on record as “X (X = 10 to <50)”.
Regarding `C[C@H](NC(=O)c1c(N)nn2cccnc12)c1cc2cccc(C#Cc3cnn(C)c3)c2c(=O)n1CCS(=O)(=O)N(C)C` [Compound 104], the IC50 in assay [1] was 5 to 10 µM; in assay [3] it was 0.001 to 0.1 µM; in assay [5], 1 to 5 µM; in assay [6], 1 to 5 µM. Moreover, in assay [3], the “PI3K δ/PI3K γ IC50 (selectivity)” value is on record as “Y (Y = 50 to <850)”.
Consider `CC[C@H](NC(=O)c1c(N)nn2cccnc12)c1cc2cccc(C#Cc3cnn(C)c3)c2c(=O)n1-c1ccccc1` [Compound 105], for which the half-inhibitory concentration (IC50) in assay [1] is 5 to 10 µM; in assay [3], 0.001 to 0.1 µM; in assay [5], 5 to 10 µM; in assay [6], 1 to 5 µM. Also, the “PI3K δ/PI3K γ IC50 (selectivity)” value in assay [3] is listed as “Y (Y = 50 to <850)”.
`Cc1ccn2nc(N)c(C(=O)N[C@@H](C)c3cc4cccc(C#Cc5cnn(C)c5)c4c(=O)n3-c3ccccc3)c2n1` [Compound 106]: the IC50 lay in the range of 5 to 10 µM in assay [1], 0.001 to 0.1 µM in assay [3], 1 to 5 µM in assay [5] and 5 to 10 µM in assay [6]. Also, in assay [3], the “PI3K δ/PI3K γ IC50 (selectivity)” value was “Y (Y = 50 to <850)”.
For `Cn1cc(C#Cc2cccc3cc(CNC(=O)c4c(N)nn5cccnc45)n(-c4ccccc4)c(=O)c23)cn1` [Compound 107], the half-maximal inhibitory concentration (IC50) in assay [1] lay within 5 to 10 µM; in assay [3], 1 to 5 µM; in assay [5] it was 5 to 10 µM; in assay [6], 5 to 10 µM. In assay [3], the “PI3K δ/PI3K γ IC50 (selectivity)” value is listed as “X (X = 10 to <50)”.
With `Cc1cc(C)n2nc(N)c(C(=O)N[C@@H](C)c3cc4cccc(C#Cc5cnn(C)c5)c4c(=O)n3-c3ccccc3)c2n1` [Compound 108], the IC50 in assay [1] was in the range of 5 to 10 µM; in assay [3] it was 0.1 to 0.5 µM; in assay [5] it was 5 to 10 µM; in assay [6], 5 to 10 µM. In addition, in assay [3], the “PI3K δ/PI3K γ IC50 (selectivity)” value is listed as “X (X = 10 to <50)”.
For `C[C@H](NC(=O)c1c(N)nn2cccnc12)c1cc2cccc(N)c2c(=O)n1-c1ccccc1` [Compound 109, (S)-2-amino-N-(1-(8-amino-1-oxo-2-phenyl-1,2-dihydroisoquinolin-3-yl)ethyl)pyrazolo[1,5-a]pyrimidine-3-carboxamide], the IC50 in assay [1] lay in the range of 1 to 5 µM; in assay [3], 0.001 to 0.1 µM; in assay [5] it was 1 to 5 µM; in assay [6], 5 to 10 µM. For the same compound, the “PI3K δ/PI3K γ IC50 (selectivity)” value in assay [3] is reported as “X (X = 10 to <50)”.

The record behind these values is patent publication US9775844B2, “Heterocyclic compounds and uses thereof” (Infinity Pharmaceuticals, Inc., priority 2014, dated 2017).
